Measured values taken from the supplement of paper PMC10307832.

How the values were obtained:
Experiment in all cases: relative viability (nuclei count vs DMSO), 5 days (fraction); higher = more cells survive
[1] = compound: C/C(=N\NC(=S)N1CCC1)/C2=CC=CC=N2 + Cc1nc(NC(=O)N2CCC[C@H]2C(N)=O)sc1-c1ccnc(C(C)(C)C(F)(F)F)c1 [Alpelisib] (partner 2 µM)
Method in brief: (§1)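 For relative viability, nuclei counts in treated wells were divided by those in vehicle wells. Lung cancer cell lines had been pin-tool dosed in 1536-well plates the day after seeding and cultured for 5 days, then fixed and stained in one step (final 0.05% Triton X-100, 1% formaldehyde, 1 ug/ml Hoechst) and imaged at 4×. Doses were one drug alone or a fixed anchor-drug dose plus five library-drug doses (not always all listed) in √10 steps, and values are duplicate-plate medians.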

[2] = compound: C/C(=N\NC(=S)N1CCC1)/C2=CC=CC=N2 + CC(C)C[C@H](NC(=O)[C@H](Cc1ccccc1)NC(=O)c1cnccn1)B(O)O [Bortezomib] (partner 0.002 µM)
Method in brief: as §1

[3] = compound: C/C(=N\NC(=S)N1CCC1)/C2=CC=CC=N2 + O=C(c1cc(Cc2n[nH]c(=O)c3ccccc23)ccc1F)N1CCN(C(=O)C2CC2)CC1 [Olaparib] (partner 8 µM)
Method in brief: as §1

[4] = compound: C/C(=N\NC(=S)N1CCC1)/C2=CC=CC=N2 + Nc1nc2[nH]cc(CCc3ccc(C(=O)N[C@@H](CCC(=O)O)C(=O)O)cc3)c2c(=O)[nH]1 [Pemetrexed] (partner 0.2 µM)
Method in brief: as §1

Cell Line | relative viability ([1]; first compound 0.05 µM) | relative viability ([1]; first compound 0.1581 µM) | relative viability ([1]; first compound 0.5 µM) | relative viability ([1]; first compound 1.581 µM) | relative viability ([1]; first compound 5 µM) | relative viability ([2]; first compound 0.05 µM) | relative viability ([2]; first compound 0.1581 µM) | relative viability ([2]; first compound 0.5 µM) | relative viability ([2]; first compound 1.581 µM) | relative viability ([2]; first compound 5 µM) | relative viability ([3]; first compound 0.05 µM) | relative viability ([3]; first compound 0.1581 µM) | relative viability ([3]; first compound 0.5 µM) | relative viability ([3]; first compound 1.581 µM) | relative viability ([3]; first compound 5 µM) | relative viability ([4]; first compound 0.05 µM) | relative viability ([4]; first compound 0.1581 µM) | relative viability ([4]; first compound 0.5 µM) | relative viability ([4]; first compound 1.581 µM) | relative viability ([4]; first compound 5 µM)
LCLC-97TM1 | 0.107 | 0.203 | 0.107 | 0.106 | 0.112 | 0.0597 | 0.0472 | 0.0458 | 0.0548 | 0.0452 | 0.0715 | 0.422 | 0.0519 | 0.0494 | 0.0514 | 0.0782 | 0.0748 | 0.0673 | 0.068 | 0.0595
LCLC-103H | 0.34 | 0.978 | 0.24 | 0.257 | 0.233 | 0.294 | 0.353 | 0.242 | 0.229 | 0.206 | 0.3 | 0.613 | 0.222 | 0.236 | 0.256 | 0.321 | 0.301 | 0.328 | 0.253 | 0.325
LOU-NH91 | 0.485 | 0.442 | 0.407 | 0.382 | 0.424 | 0.435 | 0.443 | 0.501 | 0.37 | 0.387 | 0.482 | 0.562 | 0.458 | 0.44 | 0.451 | 0.392 | 0.439 | 0.421 | 0.403 | 0.366
LU99A | 0.174 | 0.0993 | 0.112 | 0.142 | 0.135 | 0.135 | 0.108 | 0.165 | 0.124 | 0.147 | 0.168 | 0.207 | 0.124 | 0.102 | 0.128 | 0.192 | 0.158 | 0.164 | 0.146 | 0.162
LXF-289 | 0.539 | 0.307 | 0.278 | 0.147 | 0.141 | 0.314 | 0.216 | 0.255 | 0.203 | 0.121 | 0.382 | 0.647 | 0.175 | 0.176 | 0.0913 | 0.254 | 0.203 | 0.199 | 0.17 | 0.104
NCI-H23 | 0.128 | 0.148 | 0.141 | 0.128 | 0.155 | 0.108 | 0.148 | 0.171 | 0.105 | 0.136 | 0.129 | 0.101 | 0.0966 | 0.0889 | 0.111 | 0.16 | 0.175 | 0.203 | 0.137 | 0.19
NCI-H322M | 0.318 | 0.844 | 0.186 | 0.258 | 0.254 | 0.176 | 0.295 | 0.296 | 0.287 | 0.324 | 0.334 | 0.334 | 0.398 | 0.398 | 0.467 | 0.327 | 0.391 | 0.556 | 0.327 | 0.404
NCI-H441 | 0.159 | 0.173 | 0.174 | 0.166 | 0.146 | 0.162 | 0.153 | 0.171 | 0.146 | 0.127 | 0.167 | 0.136 | 0.125 | 0.113 | 0.138 | 0.16 | 0.162 | 0.129 | 0.154 | 0.118
NCI-H460 | 0.0117 | 0.0186 | 0.0138 | 0.0126 | 0.0076 | 0.0169 | 0.0164 | 0.0256 | 0.0129 | 0.0105 | 0.0648 | 0.0442 | 0.0577 | 0.0429 | 0.0274 | 0.0583 | 0.0469 | 0.0644 | 0.0399 | 0.014
NCI-H520 | 0.159 | 0.144 | 0.124 | 0.138 | 0.154 | 0.137 | 0.167 | 0.126 | 0.102 | 0.166 | 0.122 | 0.131 | 0.125 | 0.106 | 0.143 | 0.128 | 0.16 | 0.145 | 0.122 | 0.146
NCI-H596 | 0.371 | 0.256 | 0.267 | 0.227 | 0.313 | 0.518 | 0.309 | 0.237 | 0.233 | 0.276 | 0.616 | 0.391 | 0.347 | 0.31 | 0.292 | 0.373 | 0.302 | 0.339 | 0.243 | 0.292
NCI-H647 | 0.135 | 0.0873 | 0.114 | 0.0898 | 0.0916 | 0.165 | 0.105 | 0.0582 | 0.072 | 0.0851 | 0.0792 | 0.0588 | 0.0743 | 0.0667 | 0.0631 | 0.136 | 0.111 | 0.114 | 0.0953 | 0.0773
NCI-H650 | 0.187 | 0.252 | 0.271 | 0.225 | 0.169 | 0.181 | 0.238 | 0.199 | 0.134 | 0.196 | 0.135 | 0.151 | 0.147 | 0.114 | 0.138 | 0.179 | 0.245 | 0.201 | 0.166 | 0.131
NCI-H661 | 0.153 | 0.268 | 0.145 | 0.172 | 0.202 | 0.213 | 0.2 | 0.185 | 0.217 | 0.185 | 0.244 | 0.239 | 0.202 | 0.243 | 0.219 | 0.286 | 0.278 | 0.244 | 0.229 | 0.223
NCI-H838 | 0.243 | 0.211 | 0.189 | 0.189 | 0.172 | 0.165 | 0.181 | 0.172 | 0.134 | 0.145 | 0.184 | 0.173 | 0.186 | 0.159 | 0.13 | 0.223 | 0.186 | 0.185 | 0.19 | 0.186
NCI-H1355 | 0.205 | 0.545 | 0.149 | 0.145 | 0.156 | 0.2 | 0.205 | 0.21 | 0.212 | 0.195 | 0.22 | 0.179 | 0.171 | 0.175 | 0.142 | 0.195 | 0.18 | 0.177 | 0.189 | 0.152
NCI-H1437 | 0.114 | 0.127 | 0.0974 | 0.0875 | 0.0851 | 0.121 | 0.137 | 0.0867 | 0.0717 | 0.0851 | 0.226 | 0.213 | 0.235 | 0.143 | 0.119 | 0.174 | 0.169 | 0.193 | 0.171 | 0.126
NCI-H1651 | 0.149 | 0.112 | 0.138 | 0.0797 | 0.0683 | 0.167 | 0.149 | 0.151 | 0.15 | 0.137 | 0.125 | 0.117 | 0.121 | 0.122 | 0.0747 | 0.137 | 0.111 | 0.0991 | 0.0716 | 0.0806
NCI-H1666 | 0.198 | 0.208 | 0.23 | 0.212 | 0.224 | 0.218 | 0.271 | 0.232 | 0.198 | 0.221 | 0.601 | 0.547 | 0.479 | 0.461 | 0.523 | 0.532 | 0.638 | 0.54 | 0.442 | 0.473
NCI-H1734 | 0.169 | 0.185 | 0.147 | 0.135 | 0.151 | 0.228 | 0.205 | 0.174 | 0.123 | 0.107 | 0.148 | 0.13 | 0.15 | 0.114 | 0.1 | 0.17 | 0.166 | 0.188 | 0.152 | 0.135
NCI-H1755 | 0.471 | 0.834 | 0.172 | 0.201 | 0.187 | 0.331 | 0.287 | 0.208 | 0.206 | 0.204 | 0.632 | 0.858 | 0.288 | 0.29 | 0.224 | 0.394 | 0.302 | 0.273 | 0.31 | 0.292
NCI-H1792 | 0.457 | 0.373 | 0.153 | 0.114 | 0.085 | 0.478 | 0.5 | 0.219 | 0.16 | 0.126 | 0.228 | 0.107 | 0.0578 | 0.134 | 0.101 | 0.126 | 0.0786 | 0.0748 | 0.0765 | 0.0786
NCI-H1915 | 0.501 | 1.08 | 0.174 | 0.157 | 0.143 | 0.319 | 0.182 | 0.159 | 0.149 | 0.137 | 0.155 | 0.12 | 0.127 | 0.122 | 0.137 | 0.128 | 0.142 | 0.163 | 0.133 | 0.126
NCI-H1975 | 0.137 | 0.137 | 0.123 | 0.136 | 0.154 | 0.15 | 0.144 | 0.134 | 0.147 | 0.156 | 0.111 | 0.113 | 0.118 | 0.111 | 0.133 | 0.133 | 0.144 | 0.141 | 0.155 | 0.145
NCI-H1993 | 0.67 | 0.57 | 0.555 | 0.505 | 0.489 | 0.431 | 0.506 | 0.463 | 0.406 | 0.483 | 0.418 | 0.426 | 0.355 | 0.334 | 0.431 | 0.382 | 0.487 | 0.436 | 0.405 | 0.375
NCI-H2009 | 0.113 | 0.135 | 0.15 | 0.164 | 0.141 | 0.117 | 0.126 | 0.138 | 0.122 | 0.0916 | 0.0968 | 0.101 | 0.125 | 0.154 | 0.123 | 0.0997 | 0.122 | 0.134 | 0.15 | 0.122
